Assays:
[1] = test system: primitive neuroectodermal tumors; assay: Histochemical staining of biopsy sections with biotinylated chlorotoxin, summary; assay type: binding, human; conditions: of 53 patients tested
Description: Most of the samples of human tissue, from both sexes, of different ages and races were obtained through the Cooperative Human Tissue Network, Tissue Procurement at UAB, UAB hospitals and the Human Brain Tissue Bank in London, Canada. Snap frozen tissue and fresh tissue embedded in a freezing gel were sliced at 8 microns and picked up onto positively charged glass slides. The sections were then fixed in 4% paraformaldehyde or milloniqs according to the staining protocol. Paraffin blocks were sectioned and prepared according to standard procedures.
Biopsy sections were blocked for 1 hour in 10% normal goat serum in PBS and treated with a dilution of biotinylated chlorotoxin overnight at 4° C. […]
Finally, a third adjacent section was stained with both hematoxylin, a cell nuclei specific stain, and eosin, a cytoplasmic stain. Therefore, for each tissue analyzed, three adjacent sections were stained. […] In the photomicrographs, adjacent sections are identified as follows: TM-601: biotinylated chlorotoxin detected by a brown reaction product of DAB with the biotin and further counterstained with methyl. green; Control: the control section stained with only methyl green; and, H&E: the hematoxylin and eosin stained section. […]

[2] = test system: glioma cells; conditions: Transwell assays; Soroceanu et al.; cited from earlier work
[3] = test system: membrane of glioma cells; conditions: Soroceanu et al. 1998; cited from earlier work
[4] = test system: glioma cells; conditions: Ullrich and Sontheimer 1997; cited from earlier work

Substance: chlorotoxin
- patients whose tumor material showed chlorotoxin specificity [1]: 50
- effect on glioma cell migration [2]: inhibits the ability of glioma cells to migrate
- binding to glioma cells [3]: selectively binds to the membrane of glioma cells
- effect on glioma cell proliferation [4]: enhances glioma cell proliferation
